Results on two molecules are retold here after article PMC12656566, “Toxicokinetic Characterization of MDM Hydantoin via Stable Metabolite DMH: Population Modeling for Predicting Dermal Formaldehyde Formation” (Toxics, 2025).

Data set [1] is described as follows: Population toxicokinetic modeling of MDMH and DMH plasma data (IV and TD). The format is in vivo. The following applies: population estimate, rats; for Vd / clearance: male, Sprague-Dawley, rat, plasma, other: intravenous and transdermal data pooled. Here is the method: POP-TK modeling was performed to develop a compartment model describing the disposition of MDMH and DMH following different administration routes. Plasma concentration data from all studies were combined for model development.
The compartment model was designed to fit the absorption phase following TD application, disposition kinetics of MDMH and DMH following IV injection. The disposition phase of MDMH was described with a one-compartment model.
For transdermal application, MDMH applied to the skin undergoes simultaneous absorption and metabolic conversion to DMH and formaldehyde. This process was described by a first-order rate constant (ka,met) representing the combined absorption-metabolism kinetics. The parameter Fa,met represents the fraction of applied dose that penetrates the skin and undergoes metabolic conversion, accounting for incomplete absorption.
DMH formed in the skin compartment subsequently undergoes absorption into systemic circulation. This absorption was modeled using a first-order rate constant (ka,DMH) with three transit compartments to describe the delayed appearance of DMH in plasma.
The disposition of MDMH and DMH was assessed using a linear model with a central and one, two, or three peripheral compartments. The model incorporated both skin metabolism and systemic metabolism of MDMH to DMH. Systemic metabolism was described by the […], representing the fraction of eliminated MDMH that is converted to DMH in the central compartment. Molecular weight correction was applied to account for stoichiometric conversion relationships.
The final disposition and elimination compartment model was determined to use one central compartment for MDMH and one central and one peripheral compartment for DMH based on the objective function.
The differential equations for the amounts of MDMH in the central (XCentral,MDMH) compartments and DMH in the central (XCentral,DMH) and peripheral (XPeripheral,DMH) compartments were:(7) dXCentral,MDMH/dt=−CLMDMH·CCentral,MDMH (8) dXCentral,DMH/dt=−CLDMH·CCentral,DMH−CLDDMH·CCentral,DMH+CLDDMH·CPeripheral,DMH+ka,DMH·XTransit3,DMH+(MWDMH/MWMDMH)·CLMDMH·CCentral,MDMH (9) dXPeripheral,DMH/dt=+CLDDMH·CCentral,DMH−CLDDMH·CPeripheral,DMH
CCentral,MDMH and CCentral,DMH represent MDMH and DMH plasma concentrations in respective compartments and CPeripheral,DMH represent DMH concentration in peripheral compartment. CLMDMH and CLDMH were systemic clearance of MDMH and DMH and CLDDMH was distribution clearance.
The plasma concentrations of MDMH and DMH were simultaneously modeled and predicted using POP-TK modeling with the stochastic approximation expectation maximization (SAEM) algorithm in the parallelized Monolix® 2023R1 (Lixoft, Antony, Paris, France) and Berkeley Madonna version 8.3.11 (University of California at Berkeley, Berkeley, CA, USA). An importance sampling SAEM was used for population parameter estimation to describe the between-subject variability (BSV) for each parameter estimate.

The nature of data set [2]: Stability of MDMH and DMH in rat plasma and processed samples. The format is in vitro ADME. To be noted: n = 5; for Processed sample stability: autosampler at 4 °C for 24 h; for Short-term stability / Freeze–thaw stability / Long-term stability: rat plasma; for Short-term stability: room temperature (25 °C) for 4 h; for Freeze–thaw stability: three freeze–thaw cycles; for Long-term stability: −20 °C for 4 weeks. As to the method:
Short-term stability of MDMH and DMH in rat plasma was evaluated at room temperature for 4 h. Long-term stability was assessed following storage at −20 °C for 4 weeks. Freeze–thaw stability was determined after three freeze–thaw cycles. Additionally, processed sample stability was evaluated in the autosampler at 4 °C for 24 h. Stability was considered acceptable when the mean deviation from theoretical concentrations was within ±15%.
Stability studies were conducted using five replicates of low and high quality control samples under various analytical conditions, with results shown in Table 3. Short-term stability was evaluated at room temperature (25 °C) for 4 h, showing mean recoveries within acceptable limits for both analytes. Long-term stability was assessed following storage at −20 °C for 4 weeks, with recoveries remaining within ±15% of theoretical concentrations. Freeze–thaw stability was evaluated after three freeze–thaw cycles. Processed sample stability in the autosampler at 4 °C for 24 h was also within acceptable ranges.

Each structure is given as a SMILES string. Where two headings read alike, the source gives them in different places.

Consider `CC1(C)NC(=O)NC1=O` [DMH, 5,5-dimethylhydantoin], for which the Vd in data set [1] (Mean (BSV), read-out: Central volume of distribution for DMH (Vc,DMH)) is 0.32 L. The clearance in data set [1] (Mean (BSV), read-out: Clearance for DMH (CLDMH) (converted)) is 3.17 mL/min. Also, in data set [1] (Mean (BSV)), the “Absorption rate constant for DMH into the central compartment from skin (ka,DMH)” value is on record as 8.03 (38.33) 1/h, the “Distribution clearance for DMH (CLDDMH)” value is listed as 5.73 (71.8) L/h and the “Peripheral volume of distribution for DMH (Vp,DMH)” value is 0.43 (35.86) L. Besides, the “absorption rate constant for DMH (ka,DMH)” value in data set [1] was 8.03 h⁻¹. In addition, in data set [2] (High QC), the Processed sample stability is given as 113.2 ± 1.5%, the Short-term stability worked out at 101.0 ± 1.9%, the “Freeze–thaw stability” value was 93.2 ± 5.8% and the Long-term stability came out at 112.0 ± 3.2%. In data set [2] (Low QC), the Processed sample stability is reported as 90.9 ± 6.9%, the Short-term stability is given as 102.0 ± 1.4%, the “Freeze–thaw stability” value was 89.3 ± 3.8% and the Long-term stability came to 106.2 ± 4.3%.
On to `CC1(C)C(=O)NC(=O)N1CO` [MDMH, 1-(Hydroxymethyl)-5,5-dimethylhydantoin], for which, in data set [1] (Mean (BSV), read-out: Central volume of distribution for MDMH (Vc,MDMH)), the Vd is 1.18 L. In data set [1] (Mean (BSV), read-out: Clearance for MDMH (CLMDMH) (converted)), the clearance is 2460 mL/min. In addition, in data set [1] (Mean (BSV)), the “Absorption-metabolism rate constant for MDMH in skin (Ka,met)” value is reported as 0.31 (6.44) 1/h. Moreover, in data set [1], the “combined absorption-metabolism rate constant (ka,met)” value is 0.31 h⁻¹. In addition, in data set [2] (High QC), the Processed sample stability was 112.0 ± 3.5%, the Short-term stability was determined as 99.7 ± 1.3%, the “Freeze–thaw stability” value is 94.0 ± 1.8% and the Long-term stability is listed as 109.0 ± 3.9%. In data set [2] (Low QC), the Processed sample stability is recorded as 98.9 ± 4.7%, the Short-term stability is listed as 102.6 ± 1.5%, the “Freeze–thaw stability” value came out at 90.1 ± 4.1% and the Long-term stability was 110.4 ± 1.1%.
